Measured values from patent publication US8017602B2, “N-(2-(2-(5-hydroxy-3-oxo-3,4-dihydro-2H-benzo[b][1,4]oxazin-8-yl)ethylamino)ethyl)-3-(phenethoxy)propanamide derivatives, processes for their preparation, pharmaceutical compositions containing them and their use in therapy” (AstraZeneca AB, priority 2008, dated 2011).
Structures can show the parent of a compound that is named as a salt.

What was measured:
[1] = target: T1, recombinant human adrenergic beta 1 receptors (Homo sapiens, UniProt P08588); assay: Adrenergic β1 selectivity binding assay ([125I]-Iodocyanopindolol); settings: inhibition of [125I]-Iodocyanopindolol binding, human β1 membranes; read-out: β1 bind p IC50 (converted)
T1 construct: purchased Euroscreen
Protocol: (§1) Membranes containing recombinant human adrenergic beta 1 receptors were obtained from Euroscreen. These were diluted in Assay Buffer (50 mM HEPES, 1 mM EDTA, 120 mM NaCl, 0.1% gelatin, pH 7.4) to provide a final concentration of membranes that gave a clear window between maximum and minimum specific binding.
(§2) Assays were performed in U-bottomed 96-well polypropylene plates. 10 μL [^125I]-Iodocyanopindolol (0.036 nM final concentration) and 10 μL of test compound (10× final concentration) were added to each test well. For each assay plate 8 replicates were obtained for [^125I]-Iodocyanopindolol binding in the presence of 10 μl vehicle (10% (v/v) DMSO in Assay Buffer; defining maximum binding) or 10 μl Propranolol (10 μM final concentration; defining non-specific binding (NSB)). Membranes were then added to achieve a final volume of 100 μL. The plates were incubated for 2 h at room temperature and then filtered onto PEI coated GF/B filter plates, pre-soaked for 1 h in Assay Buffer, using a 96-well plate Tomtec cell harvester. Five washes with 250 μL wash buffer (50 mM HEPES, 1 mM EDTA, 120 mM NaCl, pH 7.4) were performed at 4° C. to remove unbound radioactivity. The plates were dried then sealed from underneath using Packard plate sealers and MicroScint-O (50 μl) was added to each well. The plates were sealed (TopSeal A) and filter-bound radioactivity was measured with a scintillation counter (TopCount, Packard BioScience) using a 3-minute counting protocol.
(§3) Total specific binding (B0) was determined by subtracting the mean NSB from the mean maximum binding. NSB values were also subtracted from values from all other wells. […] Data was fitted to a four parameter logistic equation to determine the compound potency, which was expressed as pIC50 (negative log molar concentration inducing 50% inhibition of [^125I]-Iodocyanopindolol binding).

[2] = target: T2, recombinant human Dopamine Subtype D2s receptors (Homo sapiens, UniProt P14416); assay: Dopamine D2 selectivity binding assay ([3H]-spiperone); settings: inhibition of [3H]-spiperone binding, human D2s membranes; read-out: D2 bind pIC50 (converted)
T2 construct: purchased Perkin Elmer
Protocol: as §1, with “Dopamine Subtype D2s” for “adrenergic beta 1”, “Perkin Elmer.” for “Euroscreen.”
Assays were performed in U-bottomed 96-well polypropylene plates. 30 μL [^3H]-spiperone (0.16 nM final concentration) and 30 μl of test compound (10× final concentration) were added to each test well. For each assay plate 8 replicates were obtained for [^3H]-spiperone binding in the presence of 30 μL vehicle (10% (v/v) DMSO in Assay Buffer; defining maximum binding) or 30 μl Haloperidol (10 μM final concentration; defining non-specific binding (NSB)). Membranes were then added to achieve a final volume of 300 μL. The plates were incubated for 2 h at room temperature and then filtered onto PEI coated GF/B filter plates, pre-soaked for 1 h in Assay Buffer, using a 96-well plate Tomtec cell harvester. Five washes with 250 μl wash buffer (50 mM HEPES, 1 mM EDTA, 120 mM NaCl, pH 7.4) were performed at 4° C. to remove unbound radioactivity. The plates were dried then sealed from underneath using Packard plate sealers and MicroScint-O (50 μl) was added to each well. The plates were sealed (TopSeal A) and filter-bound radioactivity was measured with a scintillation counter (TopCount, Packard BioScience) using a 3-minute counting protocol.
as §3, with “[^3H]-spiperone” for “[^125I]-Iodocyanopindolol”

[3] = target: T3, recombinant human α1D receptor (Homo sapiens, UniProt P25100); assay: Adrenergic α1D selectivity binding assay ([3H]-prazosin); settings: inhibition of [3H]-prazosin binding, HEK293 membranes, read-out: α1 bind pIC50 (converted)
T3 construct: expressed in transfected cells; host or cells: HEK293
T3 sequence (P25100 1-572): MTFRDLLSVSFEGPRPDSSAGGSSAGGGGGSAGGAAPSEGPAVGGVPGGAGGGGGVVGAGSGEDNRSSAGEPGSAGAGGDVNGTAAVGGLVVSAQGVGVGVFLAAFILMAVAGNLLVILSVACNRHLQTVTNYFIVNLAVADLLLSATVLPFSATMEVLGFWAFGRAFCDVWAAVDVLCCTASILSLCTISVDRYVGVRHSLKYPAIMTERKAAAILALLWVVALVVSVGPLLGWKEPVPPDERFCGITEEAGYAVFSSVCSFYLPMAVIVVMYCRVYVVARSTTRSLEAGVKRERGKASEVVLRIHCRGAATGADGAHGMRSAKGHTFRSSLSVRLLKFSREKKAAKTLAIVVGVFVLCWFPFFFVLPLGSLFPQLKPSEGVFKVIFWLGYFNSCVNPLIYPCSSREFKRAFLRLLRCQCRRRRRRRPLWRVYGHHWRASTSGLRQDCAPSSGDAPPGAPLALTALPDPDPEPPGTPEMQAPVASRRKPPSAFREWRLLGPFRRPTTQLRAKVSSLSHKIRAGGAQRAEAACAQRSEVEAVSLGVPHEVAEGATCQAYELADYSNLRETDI
Protocol: Membranes were prepared from human embryonic kidney 293 (HEK293) cells expressing recombinant human α1D receptor. These were diluted in Assay Buffer (50 mM HEPES, 1 mM EDTA, pH 7.4) to provide a final concentration of membranes that gave a clear window between maximum and minimum specific binding.
as §2, with “10 μl [^3H]-prazosin (0.3” for “10 μL [^125I]-Iodocyanopindolol (0.036”, “10 μl” for “10 μL”, “for [^3H]-prazosin” for “for [^125I]-Iodocyanopindolol”, “10 μL BMY7378” for “10 μl Propranolol”, “250 μl” for “250 μL”, “EDTA,” for “EDTA, 120 mM NaCl,”
as §3, with “[^3H]-prazosin” for “[^125I]-Iodocyanopindolol”

T2 sequence (P14416 1-414 isoform P14416-2): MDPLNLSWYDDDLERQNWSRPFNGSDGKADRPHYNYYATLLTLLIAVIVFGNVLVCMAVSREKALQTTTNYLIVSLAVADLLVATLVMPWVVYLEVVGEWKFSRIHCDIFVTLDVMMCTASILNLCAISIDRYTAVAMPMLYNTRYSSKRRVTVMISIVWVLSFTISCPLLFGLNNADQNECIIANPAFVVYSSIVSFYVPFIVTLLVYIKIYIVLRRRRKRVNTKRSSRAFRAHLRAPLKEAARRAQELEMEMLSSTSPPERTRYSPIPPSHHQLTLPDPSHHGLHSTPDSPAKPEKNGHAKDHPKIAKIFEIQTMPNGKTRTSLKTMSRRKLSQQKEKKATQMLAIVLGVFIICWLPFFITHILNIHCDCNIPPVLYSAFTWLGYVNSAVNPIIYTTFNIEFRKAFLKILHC
T1 sequence (P08588 whole entry): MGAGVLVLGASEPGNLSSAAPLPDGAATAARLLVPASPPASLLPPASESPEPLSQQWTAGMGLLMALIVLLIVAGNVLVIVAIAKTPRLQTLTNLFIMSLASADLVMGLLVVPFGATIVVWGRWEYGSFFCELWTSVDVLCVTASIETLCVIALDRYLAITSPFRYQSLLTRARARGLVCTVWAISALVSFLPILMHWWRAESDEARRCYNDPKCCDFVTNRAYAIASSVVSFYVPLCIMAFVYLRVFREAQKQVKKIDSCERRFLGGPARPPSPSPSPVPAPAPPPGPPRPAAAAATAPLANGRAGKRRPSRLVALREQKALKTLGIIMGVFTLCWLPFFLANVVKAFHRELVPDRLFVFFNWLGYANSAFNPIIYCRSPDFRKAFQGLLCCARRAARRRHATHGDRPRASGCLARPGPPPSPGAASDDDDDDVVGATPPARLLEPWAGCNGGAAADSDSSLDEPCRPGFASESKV

Structure (SMILES) | IC50 [1] [µM] | IC50 [2] [µM] | IC50 [3] [µM]
Cn1nccc1-c1cccc(CCOCCC(=O)N(CCNCCc2ccc(O)c3c2OCC(=O)N3)C2CCCCC2)c1 [Example 03, N-Cyclohexyl-N-(2-(2-(5-hydroxy-3-oxo-3,4-dihydro-2H-benzo[b][1,4]oxazin-8-yl)ethylamino)ethyl)-3-(3-(1-methyl-1H-pyrazol-5-yl)phenethoxy)propanamide Trifluoroacetic Acid Salt] | > 10 | 2.51 | 2
CCn1cc(-c2cccc(CCOCCC(=O)N(CCNCCc3ccc(O)c4c3OCC(=O)N4)C3CCCCC3)c2)nn1 [Example 04, N-Cyclohexyl-3-(3-(1-ethyl-1H-1,2,3-triazol-4-yl)phenethoxy)-N-(2-(2-(5-hydroxy-3-oxo-3,4-dihydro-2H-benzo[b][1,4]oxazin-8-yl)ethylamino)ethyl)propanamide Trifluoroacetic Acid Salt] | > 10 | 6.31 | 2
Cn1cc(-c2cccc(CCOCCC(=O)N(CCNCCc3ccc(O)c4c3OCC(=O)N4)C3CCCCC3)c2)nn1 [Example 05, N-Cyclohexyl-N-(2-(2-(5-hydroxy-3-oxo-3,4-dihydro-2H-benzo[b][1,4]oxazin-8-yl)ethylamino)ethyl)-3-(3-(1-methyl-1H-1,2,3-triazol-4-yl)phenethoxy)propanamide Trifluoroacetic Acid Salt] | > 7.94 | 3.16 | 2
Cn1nnc(-c2cccc(CCOCCC(=O)N(CCNCCc3ccc(O)c4c3OCC(=O)N4)C3CCCCC3)c2)n1 [Example 07, N-Cyclohexyl-N-(2-(2-(5-hydroxy-3-oxo-3,4-dihydro-2H-benzo[b][1,4]oxazin-8-yl)ethylamino)ethyl)-3-(3-(2-methyl-2H-tetrazol-5-yl)phenethoxy)propanamide Trifluoroacetic Acid Salt] | > 10 | 6.31 | 1
Cn1nnnc1-c1cccc(CCOCCC(=O)N(CCNCCc2ccc(O)c3c2OCC(=O)N3)C2CCCCC2)c1 [Example 08, N-Cyclohexyl-N-(2-(2-(5-hydroxy-3-oxo-3,4-dihydro-2H-benzo[b][1,4]oxazin-8-yl)ethylamino)ethyl)-3-(3-(1-methyl-1H-tetrazol-5-yl)phenethoxy)propanamide Trifluoroacetic Acid Salt] | > 10 | 3.16 | 3.98
CC(C)[C@@H](C)N(CCNCCc1ccc(O)c2c1OCC(=O)N2)C(=O)CCOCCc1cccc(-c2cnn(C)c2)c1 [Example 09, (R)—N-(2-(2-(5-Hydroxy-3-oxo-3,4-dihydro-2H-benzo[b][1,4]oxazin-8-yl)ethylamino)ethyl)-3-(3-(1-methyl-1H-pyrazol-4-yl)phenethoxy)-N-(3-methylbutan-2-yl)propanamide Trifluoroacetic Acid Salt] | > 10 | > 10 | 1
O=C1COc2c(CCNCCN(C(=O)CCOCCc3cccc(-c4cnco4)c3)C3CCCCC3)ccc(O)c2N1 [Example 10, N-Cyclohexyl-N-(2-(2-(5-hydroxy-3-oxo-3,4-dihydro-2H-benzo[b][1,4]oxazin-8-yl)ethylamino)ethyl)-3-(3-(oxazol-5-yl)phenethoxy)propanamide Trifluoroacetic Acid Salt] | 6.31 | 1 | 0.316

Second part, the molecule after the results:

IC50 [1] [µM] | IC50 [2] [µM] | IC50 [3] [µM] | Structure (SMILES)
> 10 | 3.98 | 1.58 | CC(C)n1cc(-c2cccc(CCOCCC(=O)N(CCNCCc3ccc(O)c4c3OCC(=O)N4)C3CCCCC3)c2)nn1 [Example 12, N-Cyclohexyl-N-(2-(2-(5-hydroxy-3-oxo-3,4-dihydro-2H-benzo[b][1,4]oxazin-8-yl)ethylamino)ethyl)-3-(3-(1-isopropyl-1H-1,2,3-triazol-4-yl)phenethoxy)propanamide Trifluoroacetic Acid Salt]
6.31 | 3.16 | 0.631 | Cn1cc(-c2cc(CCOCCC(=O)N(CCNCCc3ccc(O)c4c3OCC(=O)N4)C3CCCCC3)ccc2F)cn1 [Example 13, N-Cyclohexyl-3-(4-fluoro-3-(1-methyl-1H-pyrazol-4-yl)phenethoxy)-N-(2-(2-(5-hydroxy-3-oxo-3,4-dihydro-2H-benzo[b][1,4]oxazin-8-yl)ethylamino)ethyl)propanamide Trifluoroacetic Acid Salt]
> 10 | 2.51 | 1 | O=C1COc2c(CCNCCN(C(=O)CCOCCc3cccc(-c4c[nH]nn4)c3)C3CCCCC3)ccc(O)c2N1 [Example 14, 3-(3-(1H-1,2,3-Triazol-4-yl)phenethoxy)-N-cyclohexyl-N-(2-(2-(5-hydroxy-3-oxo-3,4-dihydro-2H-benzo[b][1,4]oxazin-8-yl)ethylamino)ethyl)propanamide Trifluoroacetic Acid Salt]
> 10 | > 10 | > 10 | O=C1COc2c(CCNCCN(C(=O)CCOCCc3cccc(-c4nn[nH]n4)c3)C3CCCCC3)ccc(O)c2N1 [Example 15, 3-(3-(2H-Tetrazol-5-yl)phenethoxy)-N-cyclohexyl-N-(2-(2-(5-hydroxy-3-oxo-3,4-dihydro-2H-benzo[b][1,4]oxazin-8-yl)ethylamino)ethyl)propanamide Trifluoroacetic Acid Salt]
